Measurements: patent publication US5854050A, “Enzyme with protease activity” (Novo Nordisk A/S, priority 1993, dated 1998)

What was measured:
[1] = tested on: Ground defatted feed quality soy; assay: Two-step hydrolysis of feed soy (°Brix, osmolality, DH); type: biochemical
Method: Ground defatted feed quality soy was mixed with deionised water under the conditions described below. The hydrolysis was carried out in two steps in order to simulate the pH conditions in the stomach and the small intestine.
70 g ground defatted soy
Time 1st step 180 minutes
Enzymes 1st step I) Pepsin 1.92 g
II) I + Bio-Feed Pro 3.0 L
2nd step I) Pancreatin 6 g
The enzymes were added at start 0 minutes. During the hydrolysis ° Brix and osmolality were measured to follow the reaction course. According to Adler-Nissen (1986) the osmolality values can be used for calculation of the Degree of Hydrolysis (DH) by the following equation: [formula] Where Δ is the increase in osmolality mOSM, S % is protein concentration, ω is the calibration factor for the osmometer, htot is the total number of peptide bonds in the protein substrate (meqv/g protein), and fosm is the factor for converting % to g/kg H2 O. [formula]

Hen Lysozyme = assay: Cleaning of contact lenses: removal of denatured 14C-lysozyme in 3% H2O2, pH 3.5; type: biochemical; details: 3% H2O2, pH 3.5, four hours, 25° C.; FIG. 7
Text: The experimental protocol was as follows:
Materials: Hen Lysozyme, L-6878 from Sigma "Rythmic" contact lens' from Essilor (Type II lens, high-water, nonionic) Protease I produced as described above Protease II produced as described above Porcine pepsin, P-6887 from Sigma Subtilisin carlsberg, Clear-Lens Pro® (Novo Nordisk A/S).
Standard buffer: 0.05M Na2 HPO4, 0.9% NaCl pH 7.5
Scintillation liquid, Optiphase "HiSafe III"
Hen lysozyme from Sigma was labelled with ^14 C through reductive methylation and purified.
A solution was made containing 0.05M Na2 HPO4, 0.9% NaCl and 0.2 mg/ml lysozyme pH 7.5. An amount of ^14 C-labelled lysozyme was added so the CPM (Counts Per Minute) is approximately 200.000. 1.0 ml of the solution was transferred to a scintillation glass. The contact lens was added and the glass placed in a water-bath at 85° C. for 30 minutes.
The contact lens was then rinsed in 3×3 ml reagent buffer. It was quartered with a scalpel. Each quarter was transferred to a new scintillation glass containing 3 ml of the reagent buffer. […]
The reaction took place over four hours at 25° C. […] 12 ml scintillation liquid was added and CPM was measured in a Packard 2500 TR liquid scintillation counter. […]
The relative amount of lysozyme removed from the lens during the combined disinfection/cleaning was calculated from the mass balance of each quarter lens. […]

[2] = STEP II (pH 6.5, with Pancreatin), 180 min

## Pepsin
[1]; STEP I (pH 4.0, 40° C.), 0 min
  mOSM: 347 mOSM
  mOSM INCREASE: 0 mOSM
  °BRIX: 5.09 °BRIX
[1]; STEP I (pH 4.0, 40° C.), 0 min, calculated from osmolality
  % DH (Degree of Hydrolysis): 0%
[1]; STEP I, 5 min
  % DH (Degree of Hydrolysis): 2.86%
  mOSM: 362 mOSM
  mOSM INCREASE: 15 mOSM
  °BRIX: 6.135 °BRIX
[1]; STEP I, 10 min
  % DH (Degree of Hydrolysis): 2.86%
  mOSM: 362 mOSM
  mOSM INCREASE: 15 mOSM
  °BRIX: 6.505 °BRIX
[1]; STEP I, 15 min
  % DH (Degree of Hydrolysis): 2.57%
  mOSM: 360.5 mOSM
  mOSM INCREASE: 13.5 mOSM
  °BRIX: 6.625 °BRIX
[1]; STEP I, 30 min
  % DH (Degree of Hydrolysis): 3.14%
  mOSM: 363.5 mOSM
  mOSM INCREASE: 16.5 mOSM
  °BRIX: 6.9275 °BRIX
[1]; STEP I, 45 min
  % DH (Degree of Hydrolysis): 3.62%
  mOSM: 366 mOSM
  mOSM INCREASE: 19 mOSM
  °BRIX: 7.345 °BRIX
[1]; STEP I, 60 min
  % DH (Degree of Hydrolysis): 4.00%
  mOSM: 368 mOSM
  mOSM INCREASE: 21 mOSM
  °BRIX: 7.745 °BRIX
[1]; STEP I, 90 min
  % DH (Degree of Hydrolysis): 4.47%
  mOSM: 370.5 mOSM
  mOSM INCREASE: 23.5 mOSM
  °BRIX: 8.175 °BRIX
[1]; STEP I, 120 min
  % DH (Degree of Hydrolysis): 4.95%
  mOSM: 373 mOSM
  mOSM INCREASE: 26 mOSM
  °BRIX: 8.695 °BRIX
[1]; STEP I, 180 min
  % DH (Degree of Hydrolysis): 6.57%
  mOSM: 381.5 mOSM
  mOSM INCREASE: 34.5 mOSM
  °BRIX: 9.195 °BRIX
[1]; [2]
  mOSM: 468 mOSM
  mOSM INCREASE: 0 mOSM
  °BRIX: 12.965 °BRIX
[1]; STEP II, 185 min
  mOSM: 996 mOSM
  mOSM INCREASE: 528 mOSM
  °BRIX: 15.135 °BRIX
[1]; STEP II, 190 min
  mOSM: 1009 mOSM
  mOSM INCREASE: 541 mOSM
  °BRIX: 15.4025 °BRIX
[1]; STEP II, 195 min
  mOSM: 1015.5 mOSM
  mOSM INCREASE: 547.5 mOSM
  °BRIX: 15.637 °BRIX
[1]; STEP II, 210 min
  mOSM: 1037.5 mOSM
  mOSM INCREASE: 569.5 mOSM
  °BRIX: 16.135 °BRIX
[1]; STEP II, 225 min
  mOSM: 1054.5 mOSM
  mOSM INCREASE: 586.5 mOSM
  °BRIX: 16.415 °BRIX
[1]; STEP II, 240 min
  mOSM: 1068.5 mOSM
  mOSM INCREASE: 600.5 mOSM
  °BRIX: 16.705 °BRIX
[1]; STEP II, 270 min
  mOSM: 1087.5 mOSM
  mOSM INCREASE: 619.5 mOSM
  °BRIX: 17.075 °BRIX
[1]; STEP II, 300 min
  mOSM: 1111 mOSM
  mOSM INCREASE: 643 mOSM
  °BRIX: 17.437 °BRIX
[1]; STEP II, 360 min
  mOSM: 1148 mOSM
  mOSM INCREASE: 680 mOSM
  °BRIX: 18.075 °BRIX

B1: Subtilisin carlsberg (protein, UniProt P00780 106-379, looked up)
Subtilisin Carlsberg: AQTVPYGIPLIKADKVQAQGFKGANVKVAVLDTGIQASHPDLNVVGGASFVAGEAYNTDGNGHGTHVAGTVAALDNTTGVLGVAPSVSLYAVKVLNSSGSGSYSGIVSGIEWATTNGMDVINMSLGGASGSTAMKQAVDNAYAKGVVVVAAAGNSGSSGNTNTIGYPAKYDSVIAVGAVDSNSNRASFSSVGAELEVMAPGAGVYSTYPTNTYATLNGTSMASPHVAGAAALILSKHPNLSASQVRNRLSSTATYLGSSFYYGKGLINVEAAAQ
notes: Subtilisin carlsberg, Clear-Lens Pro® (Novo Nordisk A/S), presently used serin protease for contact lens cleaning
Hen Lysozyme
  performance in contact lens cleaning (lysozyme removed): poor performance
